Measured values as given in publication PMC11270687 (ACS Omega, 2024).

Tested on: PD3
Type: biochemical, Brucella anthropi

`CCCC(=O)Oc1ccc([N+](=O)[O-])cc1` [p-nitrophenyl butyrate] was tested, and the Km was 7.82 mM.
